Measurements: US7192734B2, “Method of testing for the presence of microorganisms in a gaseous environment comprising hydrogen peroxide” (Millipore Corporation, priority 2002, dated 2007)

What was measured:
microorganisms [1] = conditions: 1 m^3 air comprising 0.3 ppm sprayed hydrogen peroxide; TSA growth medium
Protocol: The surface of the growth medium was spread with an aqueous suspension comprising a predetermined number of microorganisms.
The TSA growth media were next placed in a temperature-controlled incubator to enable the growth of the colonies of microorganisms.

[2] = test system: Miccrococus luteus ATCC9342; test: Tolerance in drastic conditions: 100 and 300 ppm hydrogen peroxide, 1% and 5% pyruvate in TSA (Example 5, part 3, Table I); assay type: cell-based, Miccrococcus luteus; conditions: hydrogen peroxide 300 ppm; pyruvate 5%
From the text: The conditions of Example 3 were reproduced using high concentrations of pyruvate (≧1%), in the presence or absence of hydrogen peroxide in the gaseous environment.
3/ Tolerance of Miccrococcus luteus in drastic conditions, when hydrogen peroxide is raised up to 300 ppm in the gaseous environment and the concentration of pyruvate is up to 5% by weight of agar growth medium.
Miccrococcus luteus growth has been monitored using respectively 100 ppm and 300 ppm of hydrogen peroxide, whereas the concentration of pyruvate by weight of TSA agar growth medium was 1% and 5%.

microorganisms [3] = test: Level of recovery of microorganisms on TSA medium with 1% sodium pyruvate, after impact of air comprising hydrogen peroxide vapour (Examples 3 and 4); assay type: cell-based; conditions: 1 m^3 air, 8 ppm hydrogen peroxide vapour; TSA + 1% by weight sodium pyruvate
Protocol: Example 1 was reproduced but with the use of 1 m^3 of air comprising 8 ppm (instead of 0.3 ppm) of hydrogen peroxide vapour (instead of sprayed hydrogen peroxide which was impacted, firstly, on a TSA growth medium, then, secondly, on the TSA medium to which 1% by weight of sodium pyruvate was added.
The results obtained are shown in FIG. 2, in which the x-axis represents the nature of the microorganisms and the y-axis represents the level of recovery.
Example 3 was reproduced by sampling 1 m^3 of air comprising 8 ppm of hydrogen peroxide which were impacted, firstly, on the same TSA growth medium to which 1% by weight of sodium pyruvate was added, not sterilized by the action of gamma radiation. Then, secondly, the same test was repeated but, this time, on the same growth medium sterilized by the action of gamma radiation.
The results obtained are shown in FIG. 3, in which the x-axis represents the nature of the microorganisms and the y-axis represents the level of recovery.

With `OO` [hydrogen peroxide] the “effect on formation of colonies of microorganisms” value (microorganisms [1]) was “inhibiting of the formation of the colonies of microorganisms”.
For `CC(=O)C(=O)[O-].[Na+]` [sodium pyruvate], the “growth of Miccrococcus luteus” value [2] was “enable growth of Miccrococcus luteus” and the “formation and counting of colonies of microorganisms” value (microorganisms [3]) was “permits the formation and counting of colonies of microorganisms”.
